Results as given in PMC3573960 (Molecular Neurodegeneration, 2012).
Read-outs that look alike come from different tables or passages of the source. Marks after values point to notes of the source that are not given here.

Tests used:
[1] = MTS cytotoxicity assay in H4-APP751 cells; details: human
Method: Cytotoxicity was evaluated using CellTiter 96® AQueous One Solution Cell Proliferation Assay (MTS Assay, Promega, Madison, WI) according to the manufacturer’s protocol.

[2] = system: Aph1AL containing γ-secretase complexes; test: Cell-free AICD production from APP β-CTF (Western blot); format: biochemical, murine; details: up to 100 μM
Method: DAPT was used as a reference positive control for the assay. For each assay condition, a 5-μL microsomal fraction, containing 1% CHAPSO (3-[(3-cholamidopropyl)dimethylammonio]-2-hydroxy-1-propanesulfonate) from murine embryonic fibroblasts (MEF) lacking the Aph-1A, Aph-1B, and Aph-1C genes (triple knock out) and rescued with Aph-1AL, was prepared in a reaction mixture of 5 μL substrate (recombinant APP β-CTF 3-Flag-tagged) at 0.8 μM, 0.0125% phosphatidylethanolamine, 0.1%, phosphatidylcholine, 0.05% sphingomyelin, and 8.9 μL PIPES (piperazine-N,N′-bis[−ethanesulfonic acid]) buffer. […] For detection of AICD, one-half of the reaction mixture was purified by a methanol-chloroform extraction in order to remove lipids and hydrophobic proteins (e.g., APP β-CTF). This purified fraction was further analyzed by SDS-PAGE and Western blotting. AICD was detected with an ANTI-FLAG® antibody (Sigma-Aldrich). The other half of the reaction mixture was used to analyze the levels of Aβ1-40 and Aβ1-42 by AlphaLisa (Perkin Elmer, Waltham, MA).

[3] = system: Tg2576 mice; test: Tolerability in chronic treatment study (body weight, organs, survival); format: in vivo, mouse
Method: Male Tg2576 and WT mice were both derived from crosses of male Tg2576 mice and female B6SJLF1 mice (Taconic) and were singly housed upon arrival. […] Some animals were euthanized as described above. For histological studies, a subset of mice were euthanized by CO2 asphyxiation and transcardially perfused with cold 0.9% NaCl. The right hemispheres were immersion fixed in fresh 4% paraformaldehyde in 0.1 M phosphate buffer, pH 7.4 for 1 h, transferred to a 15% sucrose cryoprotectant for 24 h at room temperature, and on the next day, frozen in isopentane chilled by dry ice for 1 min. The left cerebral hemisphere was cut into 2 pieces, weighed, and frozen.

[4] = Measured LogD; format: physicochemical
[5] = system: Aph1AL containing γ-secretase complexes; test: Cell-free γ-secretase assay, Aβ1-40 and Aβ1-42 by AlphaLisa; format: biochemical, murine
Source text: DAPT was used as a reference positive control for the assay. For each assay condition, a 5-μL microsomal fraction, containing 1% CHAPSO (3-[(3-cholamidopropyl)dimethylammonio]-2-hydroxy-1-propanesulfonate) from murine embryonic fibroblasts (MEF) lacking the Aph-1A, Aph-1B, and Aph-1C genes [60] […] The other half of the reaction mixture was used to analyze the levels of Aβ1-40 and Aβ1-42 by AlphaLisa (Perkin Elmer, Waltham, MA).

[6] = MTS cytotoxicity assay in rat primary neocortical cultures; format: cell-based; details: CD, primary neocortical cultures from E17 rat embryos
Method: Primary cultures were established from the neocortex of E17 rat embryos obtained from timed pregnant CD rats (Charles River Laboratories, Wilmington, MA). Following tissue dissection and trituration, the cultures were suspended in Neurobasal™ medium (Invitrogen) supplemented with 10% horse serum (Sigma-Aldrich) and 520 μM L-glutamine. Cells were plated at 50,000 cells/well in Costar 96-well poly-D-lysine-coated plates. Following incubation at 37°C and 5% CO2 for 4–5 h, the plating medium was exchanged with Neurobasal® medium with 2% B-27® supplement (Invitrogen), 520 μM of L-glutamine, and 1% penicillin-streptomycin. […] Cultures were incubated with compound for 24 h for analysis of Aβ peptides by sandwich ELISA and cytotoxicity by MTS assay.

[7] = system: γ-secretase; test: H4-APP751 cell-based assay for secreted Aβ peptides (sandwich ELISA); set-up: species or system human; details: H4-APP751 cells, up to 3 μM
Method: Human neuroglioma H4 cells (ATCC, Manassas, VA) were transfected with a pcDNA3.1 (Invitrogen, Carlsbad, CA) plasmid expressing human wild type APP751 cDNA; and a stable cell line was generated using G418 (Invitrogen) selection [55]. Prior to experimentation, H4-APP751 cells were maintained in Dulbecco’s modified Eagle’s high glucose medium with 10% fetal bovine serum, 1% penicillin-streptomycin, 2 mM L-glutamine, and 0.4 mg/mL G418. All culture reagents were from Invitrogen.
Plates were incubated overnight (16–18 h) and supernatant was removed for quantification of Aβ peptides by sandwich ELISA. Cytotoxicity was evaluated using CellTiter 96® AQueous One Solution Cell Proliferation Assay (MTS Assay, Promega, Madison, WI) according to the manufacturer’s protocol.
Aβ peptide levels were quantified by sandwich ELISA. […]
Freshly collected samples of cultured cell supernatant or synthetic peptides (American Peptide Co., Sunnyvale, CA or California Peptide Research, Inc., Napa, CA) for standard curves were diluted with media, and loaded into anti-Aβ antibody-coated plates and incubated at 4°C for about 24 h. Aβ peptides were detected with the 4G8 antibody (Aβ, aa 17–24) conjugated to horseradish peroxidase (Covance, Inc., Princeton, NJ), and SureBlue 3,3’,5,5’-tetramethylbenzidine (TMB) peroxidase substrate (KPL, Inc., Gaithersburg, MA). […]

[8] = system: Tg2576 mice; details: mean (sem)
Source text: Male Tg2576 and WT mice were both derived from crosses of male Tg2576 mice and female B6SJLF1 mice (Taconic) and were singly housed upon arrival. […] Some animals were euthanized as described above. For histological studies, a subset of mice were euthanized by CO2 asphyxiation and transcardially perfused with cold 0.9% NaCl. […] The left cerebral hemisphere was cut into 2 pieces, weighed, and frozen.
The right hemispheres were sectioned at 20 μm in the sagittal plane. From 12 levels, 7 sections were retained and processed. Aβ plaque load was quantified in sections doubly stained by immunohistochemistry with 6E10 antibody (N-terminal human Aβ, aa 1–16) and by ThioflavinS. Astrocytes were immunostained using a primary rabbit polyclonal antibody against GFAP (Dako, Glostrup, Denmark) and a fluorescently labelled secondary Cy2 antibody (Jackson ImmunoResearch Laboratories, West Grove, PA). Activated microglia were immunostained using a rat anti-murine CD11b primary antibody (AbD Serotec, Kidlington, UK) and a fluorescently labelled secondary Cy3 antibody (Jackson ImmunoResearch Laboratories). Astrocytes and microglia were labelled in a double incubation and sections were counterstained with DAPI to visualize cell nuclei.
Hippocampus and neocortex were measured separately, and the percent area of immunoreactivity or ThioflavinS staining per brain region was evaluated using automated image analysis software (Image Pro Plus, v. 6.2, Media Cybernetics, Bethesda, MD). Numbers and sizes of Aβ deposits were also counted automatically. Measurements from 5 sections per mouse were averaged and the individual mouse average was used to calculate the group means.

For O=C(O)[C@H](CC1CCC1)c1cc(Cl)c(OCC(F)(F)F)c(-c2ccc(C(F)(F)F)cc2)c1 [EVP-0015962, (R)-2-(5-chloro-6-(2,2,2-trifluoroethoxy)-4’-(trifluoromethyl)biphenyl-3-yl)-3-cyclobutylpropanoic acid], the IC50 [1] was 5.56 ± 0.51 µM, the “production of AICD from APP β-CTF” value [2] was “did not prevent” and the “mortality (percent of group lost)” value ([3]; Tg2576 mice, 60 mg/kg/day, 50 weeks) was 25%. For the same compound, the “body weight among the treatment groups” value ([3]; Tg2576 mice, 20 or 60 mg/kg/day, 50 weeks) was “no significant differences”, the “effects on intestinal goblet cells or any other organ system examined” value ([3]; satellite animals, up to 60 mg/kg/day, 11 weeks) was “no evidence of effects” and the logD [4] was 3.88. For the same compound, the “levels of Aβ40 in the cell-free assay” value [5] was “without affecting”, the IC50 at 24 h [6] was greater than 30 µM and the “levels of AβTotal” value [7] was “remained unchanged”. For the same compound, the “6E10 Aβ plaque Number/mm^2” value ([8]; hippocampus, 20 mg/kg/day) was 61.0 (12.2)* percent of control, the “6E10 Aβ plaque Size (μm^2)” value ([8]; hippocampus, 20 mg/kg/day) was 99.4 (15.7) percent of control and the “6E10 Aβ plaque percent area” value ([8]; hippocampus, 20 mg/kg/day) was 62.1 (13.2)* percent of control. For the same compound, the “ThioflavinS Aβ plaque Number/mm^2” value ([8]; hippocampus, 20 mg/kg/day) was 55.2 (15.6)* percent of control, the “ThioflavinS Aβ plaque Size (μm^2)” value ([8]; hippocampus, 20 mg/kg/day) was 56.5 (16.3) percent of control and the “ThioflavinS Aβ plaque percent area” value ([8]; hippocampus, 20 mg/kg/day) was 40.7 (16.9)** percent of control. The “6E10 Aβ plaque Number/mm^2” value ([8]; hippocampus, 60 mg/kg/day) was 53.9 (16.8)* percent of control, the “6E10 Aβ plaque Size (μm^2)” value ([8]; hippocampus, 60 mg/kg/day) was 104.1 (11.6) percent of control and the “6E10 Aβ plaque percent area” value ([8]; hippocampus, 60 mg/kg/day) was 53.1 (15.2)* percent of control. The “ThioflavinS Aβ plaque Number/mm^2” value ([8]; hippocampus, 60 mg/kg/day) was 50.7 (12.8)* percent of control, the “ThioflavinS Aβ plaque Size (μm^2)” value ([8]; hippocampus, 60 mg/kg/day) was 58.9 (27.0) percent of control and the “ThioflavinS Aβ plaque percent area” value ([8]; hippocampus, 60 mg/kg/day) was 27.3 (6.5)** percent of control. The “6E10 Aβ plaque Number/mm^2” value ([8]; neocortex, 20 mg/kg/day) was 65.2 (8.8) percent of control, the “6E10 Aβ plaque Size (μm^2)” value ([8]; neocortex, 20 mg/kg/day) was 105.5 (8.8) percent of control and the “6E10 Aβ plaque percent area” value ([8]; neocortex, 20 mg/kg/day) was 69.2 (9.7) percent of control. The “ThioflavinS Aβ plaque Number/mm^2” value ([8]; neocortex, 20 mg/kg/day) was 64.3 (8.0) percent of control, the “ThioflavinS Aβ plaque Size (μm^2)” value ([8]; neocortex, 20 mg/kg/day) was 87.8 (12.2) percent of control and the “ThioflavinS Aβ plaque percent area” value ([8]; neocortex, 20 mg/kg/day) was 64.3 (14.3) percent of control. The “6E10 Aβ plaque Number/mm^2” value ([8]; neocortex, 60 mg/kg/day) was 71.3 (15.0) percent of control, the “6E10 Aβ plaque Size (μm^2)” value ([8]; neocortex, 60 mg/kg/day) was 88.5 (5.4) percent of control and the “6E10 Aβ plaque percent area” value ([8]; neocortex, 60 mg/kg/day) was 65.3 (16.3) percent of control. The “ThioflavinS Aβ plaque Number/mm^2” value ([8]; neocortex, 60 mg/kg/day) was 59.6 (14.1) percent of control, the “ThioflavinS Aβ plaque Size (μm^2)” value ([8]; neocortex, 60 mg/kg/day) was 58.1 (10.6)* percent of control and the “ThioflavinS Aβ plaque percent area” value ([8]; neocortex, 60 mg/kg/day) was 29.9 (7.3)* percent of control.
